How the values were obtained:
[1] = tested on: Puccinia recondita f. Sp. Tritici; assay: Fungicidal activity against Puccinia recondita f. sp. tritici / wheat / leaf disc preventative (brown rust); format: in vivo; details: foliar, 200 ppm in the applied formulation, wheat leaf segments, preventative, compared to untreated control leaf disks, read-out: disease control
Method in brief: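 Preventative leaf-segment test, wheat cv. Kanzler on water agar. Spray compound at 200 ppm, inoculate with spores 1 day later; 19° C., 75% rh, 12/12 h light. Read-out: % disease control vs untreated, 7 to 9 days after application.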

[2] = tested on: Puccinia recondita f. Sp. Tritici; assay: Fungicidal activity against Puccinia recondita f. sp. tritici / wheat / leaf disc curative (brown rust); format: in vivo; details: foliar, 24 h, 200 ppm in the applied formulation, wheat leaf segments, curative (applied 1 day after inoculation), compared to untreated control leaf disks, read-out: disease control
Method in brief: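 Wheat cv. Kanzler leaf segments on agar, inoculated with rust spore suspension, kept dark at 19° C and 75% RH; formulated compound sprayed 1 day post-inoculation. Incubated 19° C, 75% RH, 12 h light/12 h dark; percent disease control vs untreated scored 6 to 8 days after application.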

[3] = tested on: Glomerella lagenarium (Colletotrichum lagenarium); assay: Fungicidal activity against Glomerella lagenarium (Colletotrichum lagenarium) liquid culture / cucumber / preventative (anthracnose); format: cell-based; details: Colletotrichum orbiculare; 20 ppm in the applied formulation; liquid culture (PDB), growth inhibition measured photometrically after 3 to 4 days; compared to untreated control; read-out: disease control
Method in brief: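 Photometric read-out of fungal growth after 2–7 days, expressed as percent antifungal activity versus untreated check. Cryo-stored conidia in PDB; compound at 20 ppm; dark, 24 °C, 96% RH.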

CC1(C(=O)N(Cc2ccc(-c3noc(C(F)(F)F)n3)cc2)CC2CCCO2)COC1 (stereo not drawn) [Compound 1.438, 3-methyl-N-(tetrahydrofuran-2-ylmethyl)-N-[[4-[5-(trifluoromethyl)-1,2,4-oxadiazol-3-yl]phenyl)methyl]-oxetane-3-carboxamide]
≥ 80%: pest or weed control at 200 ppm [1] | pest or weed control at 200 ppm [2] | inhibition of growth at 20 ppm [3]

CCOC(=O)CN(C)C(=O)N(C)Cc1ccc(-c2noc(C(F)(F)F)n2)cc1 [Compound 3.73, ethyl 2-[methyl-[methyl-[[4-[5-(trifluoromethyl)-1,2,4-oxadiazol-3-yl]phenyl]methyl]-carbamoyl- ]amino]acetate]
≥ 80%: pest or weed control at 200 ppm [1] | pest or weed control at 200 ppm [2] | inhibition of growth at 20 ppm [3]

O=C(C1CSC1)N(Cc1ccc(-c2noc(C(F)(F)F)n2)cc1)CC1CCCO1 (stereo not drawn) [Compound 1.421, N-(tetrahydrofuran-2-ylmethyl)-N-[[4-[5-(trifluoromethyl)-1,2,4-oxadiazol-3-yl]phenyl]methyl]-thietane-3-carboxamide]
≥ 80%: pest or weed control at 200 ppm [1] | pest or weed control at 200 ppm [2] | inhibition of growth at 20 ppm [3]

COCCN(Cc1ccc(-c2noc(C(F)(F)F)n2)cc1)C(=O)C1=CCCC1 [Compound 1.333, N-(2-methoxyethyl)-N-[[4-[5-(trifluoromethyl)-1,2,4-oxadiazol-3-yl]phenyl]methyl]-cyclopentene-1-carboxamide]
≥ 80%: pest or weed control at 200 ppm [1] | pest or weed control at 200 ppm [2] | inhibition of growth at 20 ppm [3]

CCN(Cc1ccc(-c2noc(C(F)(F)F)n2)cc1)C(=O)N(C)C1COC1 [Compound 3.91, 1-ethyl-3-methyl-3-(oxetan-3-yl)-1-[[4-[5-(trifluoromethyl)-1,2,4-oxadiazol-3-yl]phenyl]methyl]urea]
≥ 80%: pest or weed control at 200 ppm [1] | pest or weed control at 200 ppm [2] | inhibition of growth at 20 ppm [3]

CCN(Cc1ccc(-c2noc(C(F)(F)F)n2)cc1)C(=O)CCl [Compound 1.502, 2-chloro-N-ethyl-N-[[4-[5-(trifluoromethyl)-1,2,4-oxadiazol-3-yl]phenyl]methyl]-acetamide]
≥ 80%: pest or weed control at 200 ppm [1] | pest or weed control at 200 ppm [2] | inhibition of growth at 20 ppm [3]

COC(C)C(=O)N(Cc1ccc(-c2noc(C(F)(F)F)n2)cc1)CC1CCCO1 (stereo not drawn) [Compound 1.446, 2-methoxy-N-(tetrahydrofuran-2-ylmethyl)-N-[[4-[5-(trifluoromethyl)-1,2,4-oxadiazol-3-yl]phenyl]methyl]-propanamide]
≥ 80%: pest or weed control at 200 ppm [1] | pest or weed control at 200 ppm [2] | inhibition of growth at 20 ppm [3]

CC=CC(=O)N(CCOC)Cc1ccc(-c2noc(C(F)(F)F)n2)cc1 [Compound 1.326, N-(2-methoxyethyl)-N-[[4-[5-(trifluoromethyl)-1,2,4-oxadiazol-3-yl]phenyl]methyl]but-2-enamide]
≥ 80%: pest or weed control at 200 ppm [1] | pest or weed control at 200 ppm [2] | inhibition of growth at 20 ppm [3]

CN(Cc1ccc(-c2noc(C(F)(F)F)n2)cc1)C(=O)N(C)CC1CC1 [Compound 3.83, 1-(cyclopropylmethyl)-1,3-dimethyl-3-[[4-[5-(trifluoromethyl)-1,2,4-oxadiazol-3-yl]phenyl]methyl]urea]
≥ 80%: pest or weed control at 200 ppm [1] | pest or weed control at 200 ppm [2] | inhibition of growth at 20 ppm [3]

CCN(Cc1ccc(-c2noc(C(F)(F)F)n2)cc1)C(=O)N1CCCO1 [Compound 3.87, N-ethyl-N-[[4-[5-(trifluoromethyl)-1,2,4-oxadiazol-3-yl]phenyl]methyl]-isoxazolidine-2-carboxamide]
≥ 80%: pest or weed control at 200 ppm [1] | pest or weed control at 200 ppm [2] | inhibition of growth at 20 ppm [3]

CN(Cc1ccc(-c2noc(C(F)(F)F)n2)cc1)C(=O)N1CCCC1 [Compound 3.74, N-methyl-N-[[4-[5-(trifluoromethyl)-1,2,4-oxadiazol-3-yl]phenyl]methyl]-pyrrolidine-1-carboxamide]
≥ 80%: pest or weed control at 200 ppm [1] | pest or weed control at 200 ppm [2] | inhibition of growth at 20 ppm [3]

CC1CC1C(=O)N(Cc1ccc(-c2noc(C(F)(F)F)n2)cc1)Cc1ccco1 (stereo not drawn) [Compound 1.460, N-(2-furylmethyl)-2-methyl-N-[[4-[5-(trifluoromethyl)-1,2,4-oxadiazol-3-yl]phenyl]methyl]-cyclopropane-carboxamide]
≥ 80%: pest or weed control at 200 ppm [1] | pest or weed control at 200 ppm [2] | inhibition of growth at 20 ppm [3]

C#CCN(C)C(=O)N(C)Cc1ccc(-c2noc(C(F)(F)F)n2)cc1 [Compound 3.77, 1,3-dimethyl-1-prop-2-ynyl-3-[[4-[5-(trifluoromethyl)-1,2,4-oxadiazol-3-yl]phenyl]methyl]urea]
≥ 80%: pest or weed control at 200 ppm [1] | pest or weed control at 200 ppm [2] | inhibition of growth at 20 ppm [3]

O=C(C1CC1)N(Cc1ccc(-c2noc(C(F)(F)F)n2)cc1)CC1CCCO1 (stereo not drawn) [Compound 1.450, N-(tetrahydrofuran-2-ylmethyl)-N-[[4-[5-(trifluoromethyl)-1,2,4-oxadiazol-3-yl]phenyl]methyl]-cyclopropane-carboxamide]
≥ 80%: pest or weed control at 200 ppm [1] | pest or weed control at 200 ppm [2] | inhibition of growth at 20 ppm [3]

CC=C(C)C(=O)N(Cc1ccc(-c2noc(C(F)(F)F)n2)cc1)C(C)CC (stereo not drawn) [Compound 1.374, 2-methyl-N-sec-butyl-N-[[4-[5-(trifluoromethyl)-1,2,4-oxadiazol-3-yl]phenyl]methyl]but-2-enamide]
≥ 80%: pest or weed control at 200 ppm [1] | pest or weed control at 200 ppm [2] | inhibition of growth at 20 ppm [3]

CC#CC(=O)N(OC)C(C)c1ccc(-c2noc(C(F)(F)F)n2)cc1 (stereo not drawn) [Compound 1.248, N-methoxy-N-[1-[4-[5-(trifluoromethyl)-1,2,4-oxadiazol-3-yl]phenyl]ethyl]but-2-ynamide]
≥ 80%: pest or weed control at 200 ppm [1] | pest or weed control at 200 ppm [2] | inhibition of growth at 20 ppm [3]

CCC(C)N(Cc1ccc(-c2noc(C(F)(F)F)n2)cc1)C(=O)C1CC1 (stereo not drawn) [Compound 1.406, N-sec-butyl-N-[[4-[5-(trifluoromethyl)-1,2,4-oxadiazol-3-yl]phenyl]methyl]-cyclopropane-carboxamide]
≥ 80%: pest or weed control at 200 ppm [1] | pest or weed control at 200 ppm [2] | inhibition of growth at 20 ppm [3]

CCN(Cc1ccc(-c2noc(C(F)(F)F)n2)cc1)C(=O)N(CC)C1CC1 [Compound 3.89, 1-cyclopropyl-1,3-diethyl-3-[[4-[5-(trifluoromethyl)-1,2,4-oxadiazol-3-yl]phenyl]methyl]urea]
≥ 80%: pest or weed control at 200 ppm [1] | pest or weed control at 200 ppm [2] | inhibition of growth at 20 ppm [3]

O=C(C1CCCO1)N(Cc1ccc(-c2noc(C(F)(F)F)n2)cc1)Cc1ccco1 (stereo not drawn) [Compound 1.469, N-(2-furylmethyl)-N-[[4-[5-(trifluoromethyl)-1,2,4-oxadiazol-3-yl]phenyl]methyl]-tetrahydrofuran-2-carboxamide]
≥ 80%: pest or weed control at 200 ppm [1] | pest or weed control at 200 ppm [2] | inhibition of growth at 20 ppm [3]

COCC(=O)N(Cc1ccc(-c2noc(C(F)(F)F)n2)cc1)Cc1ccco1 [Compound 1.459, N-(2-furylmethyl)-2-methoxy-N-[[4-[5-(trifluoromethyl)-1,2,4-oxadiazol-3-yl]phenyl]methyl]-acetamide]
≥ 80%: pest or weed control at 200 ppm [1] | pest or weed control at 200 ppm [2] | inhibition of growth at 20 ppm [3]

O=C(C1OCCO1)N(Cc1ccc(-c2noc(C(F)(F)F)n2)cc1)CC1CCCO1 (stereo not drawn) [Compound 1.447, N-(tetrahydrofuran-2-ylmethyl)-N-[[4-[5-(trifluoromethyl)-1,2,4-oxadiazol-3-yl]phenyl]methyl]-1,3-dioxolane-2-carboxamide]
≥ 80%: pest or weed control at 200 ppm [1] | pest or weed control at 200 ppm [2] | inhibition of growth at 20 ppm [3]

CN(Cc1ccc(-c2noc(C(F)(F)F)n2)cc1)C(=O)N(C)C1CC1 [Compound 3.72, 1-cyclopropyl-1,3-dimethyl-3-[[4-[5-(trifluoromethyl)-1,2,4-oxadiazol-3-yl]phenyl]methyl]urea]
≥ 80%: pest or weed control at 200 ppm [1] | pest or weed control at 200 ppm [2] | inhibition of growth at 20 ppm [3]

CCCC(=O)N(Cc1ccc(-c2noc(C(F)(F)F)n2)cc1)Cc1ccco1 [Compound 1.465, N-(2-furylmethyl)-N-[[4-[5-(trifluoromethyl)-1,2,4-oxadiazol-3-yl]phenyl]methyl]-butanamide]
≥ 80%: pest or weed control at 200 ppm [1] | pest or weed control at 200 ppm [2] | inhibition of growth at 20 ppm [3]

CCN(Cc1ccc(-c2noc(C(F)(F)F)n2)cc1)C(=O)N(C)CC#N [Compound 3.88, 1-(cyanomethyl)-3-ethyl-1-methyl-3-[[4-[5-(trifluoromethyl)-1,2,4-oxadiazol-3-yl]phenyl]methyl]urea]
≥ 80%: pest or weed control at 200 ppm [1] | pest or weed control at 200 ppm [2] | inhibition of growth at 20 ppm [3]

COCCN(Cc1ccc(-c2noc(C(F)(F)F)n2)cc1)C(=O)C1CCCC1 [Compound 1.332, N-(2-methoxyethyl)-N-[[4-[5-(trifluoromethyl)-1,2,4-oxadiazol-3-yl]phenyl]methyl]-cyclopentane-carboxamide]
≥ 80%: pest or weed control at 200 ppm [1] | pest or weed control at 200 ppm [2] | inhibition of growth at 20 ppm [3]

Reference: patent US11180462B2, “Microbiocidal oxadiazole derivatives” (SYNGENTA PARTICIPATIONS AG, priority 2015, dated 2021)
